According to patent US20220193084A1, “INHIBITORS OF EZH2 AND METHODS OF USE THEREOF” (Epizyme, Inc., priority 2015, published 2022):

Assays:
[1] = human, in vivo
Protocol: (§1) Table 10 describes a Phase 1 clinical trial design (sponsor protocol no.: E7438-G000-001, ClinicalTrials.gov identifier: NCT01897571). The study population included subjects with relapsed or refractory solid tumors or B-cell lymphoma. Subjects received a 3+3 dose escalation in expansion cohorts receiving 800 mg BID and 1600 mg BID, respectively, or a cohort for ascertaining the effect of food on dosing at 400 mg BID. The primary endpoint was a determination of recommended phase II dose (RP2D)/maximum tolerated dose (MTD). Secondary endpoints included safety, pharmacokinetics (PK), pharmacodynamics (PD) and tumor response, assessed every 8 wks.

[2] = tested on: relapsed or refractory solid tumors or B-cell lymphoma; assay: Phase 1 clinical trial (NCT01897571): tumor response; type: in vivo, human
Protocol: as §1

## CCN(c1cc(-c2ccc(CN3CCOCC3)cc2)cc(C(=O)NCc2c(C)cc(C)[nH]c2=O)c1C)C1CCOCC1 [tazemetostat]
[1]
  Abdominal pain, All Events, All Grades: 4
  Abdominal pain, All Events, Grade ≥3: 1
  Abdominal pain, All Treatment-Related, All Grades: 1
  Abdominal pain, All Treatment-Related, Grade ≥3: 0
  Anemia, All Events, All Grades: 5
  Anemia, All Events, Grade ≥3: 0
  Anemia, All Treatment-Related, All Grades: 3
  Anemia, All Treatment-Related, Grade ≥3: 0
  Anxiety, All Events, All Grades: 3
  Anxiety, All Events, Grade ≥3: 0
  Anxiety, All Treatment-Related, All Grades: 1
  Anxiety, All Treatment-Related, Grade ≥3: 0
  Asthenia, All Events, All Grades: 23
  Asthenia, All Events, Grade ≥3: 0
  Asthenia, All Treatment-Related, All Grades: 13
  Asthenia, All Treatment-Related, Grade ≥3: 0
  Constipation, All Events, All Grades: 7
  Constipation, All Events, Grade ≥3: 0
  Constipation, All Treatment-Related, All Grades: 2
  Constipation, All Treatment-Related, Grade ≥3: 0
  Decreased appetite, All Events, All Grades: 9
  Decreased appetite, All Events, Grade ≥3: 1
  Decreased appetite, All Treatment-Related, All Grades: 4
  Decreased appetite, All Treatment-Related, Grade ≥3: 0
  Depression, All Events, All Grades: 3
  Depression, All Events, Grade ≥3: 2
  Depression, All Treatment-Related, All Grades: 1
  Depression, All Treatment-Related, Grade ≥3: 0
  Diarrhea, All Events, All Grades: 6
  Diarrhea, All Events, Grade ≥3: 0
  Diarrhea, All Treatment-Related, All Grades: 4
  Diarrhea, All Treatment-Related, Grade ≥3: 0
  Dry skin, All Events, All Grades: 5
  Dry skin, All Events, Grade ≥3: 0
  Dry skin, All Treatment-Related, All Grades: 4
  Dry skin, All Treatment-Related, Grade ≥3: 0
  Dysgeusia, All Events, All Grades: 5
  Dysgeusia, All Events, Grade ≥3: 0
  Dysgeusia, All Treatment-Related, All Grades: 5
  Dysgeusia, All Treatment-Related, Grade ≥3: 0
  Dyspnea, All Events, All Grades: 5
  Dyspnea, All Events, Grade ≥3: 0
  Dyspnea, All Treatment-Related, All Grades: 0
  Dyspnea, All Treatment-Related, Grade ≥3: 0
  Hepatocellular injury, All Events, All Grades: 2
  Hepatocellular injury, All Events, Grade ≥3: 1
  Hepatocellular injury, All Treatment-Related, All Grades: 1
  Hepatocellular injury, All Treatment-Related, Grade ≥3: 1
  Hypertension, All Events, All Grades: 3
  Hypertension, All Events, Grade ≥3: 1
  Hypertension, All Treatment-Related, All Grades: 2
  Hypertension, All Treatment-Related, Grade ≥3: 1
  Hypophosphatemia, All Events, All Grades: 4
  Hypophosphatemia, All Events, Grade ≥3: 0
  Hypophosphatemia, All Treatment-Related, All Grades: 1
  Hypophosphatemia, All Treatment-Related, Grade ≥3: 0
  Insomnia, All Events, All Grades: 3
  Insomnia, All Events, Grade ≥3: 0
  Insomnia, All Treatment-Related, All Grades: 0
  Insomnia, All Treatment-Related, Grade ≥3: 0
  Muscle spasms, All Events, All Grades: 5
  Muscle spasms, All Events, Grade ≥3: 0
  Muscle spasms, All Treatment-Related, All Grades: 3
  Muscle spasms, All Treatment-Related, Grade ≥3: 0
  Nausea, All Events, All Grades: 8
  Nausea, All Events, Grade ≥3: 0
  Nausea, All Treatment-Related, All Grades: 8
  Nausea, All Treatment-Related, Grade ≥3: 0
  Neutropenia, All Events, All Grades: 3
  Neutropenia, All Events, Grade ≥3: 1
  Neutropenia, All Treatment-Related, All Grades: 3
  Neutropenia, All Treatment-Related, Grade ≥3: 1
  Night sweats, All Events, All Grades: 3
  Night sweats, All Events, Grade ≥3: 0
  Night sweats, All Treatment-Related, All Grades: 3
  Night sweats, All Treatment-Related, Grade ≥3: 0
  Peripheral edema, All Events, All Grades: 3
  Peripheral edema, All Events, Grade ≥3: 0
  Peripheral edema, All Treatment-Related, All Grades: 2
  Peripheral edema, All Treatment-Related, Grade ≥3: 0
  Safety profile as monotherapy: acceptable
  Thrombocytopenia, All Events, All Grades: 8
  Thrombocytopenia, All Events, Grade ≥3: 2
  Thrombocytopenia, All Treatment-Related, All Grades: 7
  Thrombocytopenia, All Treatment-Related, Grade ≥3: 1
  Vomiting, All Events, All Grades: 6
  Vomiting, All Events, Grade ≥3: 0
  Vomiting, All Treatment-Related, All Grades: 5
  Vomiting, All Treatment-Related, Grade ≥3: 0
[2]; both EZH2 mutant and wild type patients
  clinical responses in phase 1 clinical trial: demonstrated clinical responses
[2]; relapsed or refractory DLBCL (GCB and non-GCB), FL and MZL
  clinical activity as a monotherapy: demonstrates clinical activity
